Test results from paper PMC8602566 (Frontiers in Oncology, 2021).
Read-outs that look alike come from different tables or passages of the source.

How the values were obtained:
[1] = system: Human leukemia cell line K562; assay: MTT cell viability assay, K562; format: cell-based; conditions: K562, MTT, 72 h, read-out: IC50 antiproliferative activity K562
Experimental: (§1) Cell viability was measured using the 3-(4,5-dimethylthiazol-2-yl)-2,5-diphenyltetrazolium bromide (MTT) assay and was expressed as a ratio to the absorbance value at 570 nm of the control cells.

[2] = Pharmacokinetic study in mice; format: in vivo, SD mice; conditions: plasma; for Tmax: 10 mg/kg
Experimental: The animal studies were approved by the Institutional Animal Care and Used Committee. The pharmacokinetic study of DMC-HA was carried out with female SD mice. The compound (2.0 mM) was suspended in DMSO (10%) and Tween 80 (10%) in PBS (80%). A single dose of 1 mg/kg was administrated by intravenous injection (n = 3 mice), followed by blood collection via retro-orbital bleeding at 0.25, 0.5, 2.0, 4.0, 8.0, 12.0, and 24 h. Whole blood samples were added to a tube containing ethylenediaminetetraacetic acid (EDTA) and centrifuged. Plasma was collected and stored at −20°C. Compound standards were prepared with pooled plasma samples. Fifty microliters of thawed plasma and standards were added into wells of Ostro Pass-Through Sample Preparation Plate (Waters) for solid phase extraction. Acetonitrile (150 μl) containing internal standard was added and mixed by pipette. Next, clear sample solution was eluted by positive pressure processor under 60 psi for 5 min. The sample solution can be used directly for LC-MS/MS analysis.
The preliminary in vivo pharmacokinetic study for DMC-HA was performed in mice. SD mice were intravenously injected with 1 mg/kg DMC-HA or orally administrated with 10 mg/kg DMC-HA. Plasma samples were collected and analyzed with LC-MS/MS.

[3] = system: Human liver cancer cell line HepG2; assay: MTT cell viability assay, HepG2; format: cell-based; conditions: HepG2, MTT, 72 h, read-out: IC50 antiproliferative activity HepG2
Experimental: as §1

HDAC5 = HDAC5 (Homo sapiens, UniProt Q9UQL6); assay: HDACs inhibition assay, HDAC5
Experimental: (§2) The inhibition assays for HDACs were carried out according to standard protocols. […] The reaction was stopped by the addition of 45 μl of 100 mM HEPES (pH 7.5) and 0.08% sodium dodecyl sulfate (SDS). The substrate and the product were then separated electrophoretically using a LabChip 3000 system (Caliper Life Sciences, Hopkinton, MA) with blue laser excitation and green fluorescence detection.

[4] = system: Human umbilical vein endothelial cells HUVEC; assay: MTT cell viability assay, HUVEC; format: cell-based
Experimental: as §1

U87 tumor xenograft = conditions: nude mice, 20 mg/kg once daily
From the text: Six-week-old BALB/c nude mice were purchased from Shanghai Experimental Animal Center of Chinese Academy of Science (Shanghai, China). All animal protocols were implemented according to the guidelines of the Association for Assessment and Accreditation of Laboratory Animal Care. U87 cells (3 × 10^6) were subcutaneously implanted into the right flank of mice. After 6 days of tumor growth, tumors grew to approximately 100 mm^3, and mice were randomly divided into three groups with nine animals in each group. […] The control group was intraperitoneally injected an equal volume of DMSO. Body weights and tumor volumes were measured every 2 days. After treatment, all of the mice were sacrificed, and the tumors were harvested, weighted, and photographed. The tumor volume was calculated according the formula: tumor volume = (length × width^2)/2.
U87 cells were subcutaneously inoculated into the right flank of mice.

[5] = system: acetylated histone H3 in U87 cells; assay: Western blot analysis for H3-histone acetylation; format: cell-based, Human
Experimental: U87 cells (5 × 10^5 cells/ml) in six-well plates were incubated with DMC-HA and lysed in radioimmunoprecipitation assay (RIPA) buffer containing protease and phosphatase inhibitors. Protein contents in the lysates were determined by Bradford’s assay, and 50 μg was separated by SDS polyacrylamide gel electrophoresis (SDS-PAGE) electrophoresis. Proteins were transferred to membranes and probed with human anti-acetylated H3 and anti-β actin antibodies as a loading control. Membranes were then labeled with the appropriate horseradish peroxidase (HRP)-conjugated immunoglobulin G (IgG), and protein bands were visualized using enhanced chemiluminescence. (Bio-Rad, Hercules, CA, USA).
Next, DMC-HA-induced acetylation of histone H3 in living cells was analyzed using Western blot method.

[6] = system: Human glioblastoma cell line U87; assay: MTT cell viability assay, U87; format: cell-based; conditions: MTT, 72 h, read-out: IC50 antiproliferative activity U87
Experimental: Human GBM U87 cell line was purchased from the American Type Culture Collection (ATCC). Cells were cultured in Dulbecco’s modified Eagle’s medium (DMEM) supplemented with 10% fetal bovine serum (FBS) and maintained in a 37°C, 5% CO2 incubator. After cells were routinely passaged at 2- to 3-day intervals, experiments were carried out when the cells entered exponential growth phase.
as §1

U87 cells = assay: Cell cycle analysis by flow cytometry; format: cell-based, Human; conditions: 2.5 μM, 36 h (control 4.6%)
Experimental: […] Cells were detached, fixed in 70% ethanol in PBS (−20°C) overnight and resuspended in PBS supplemented with 100 µg/ml RNase and 50 µg/ml PI for 30 min. Cell cycle analysis was performed on a flow cytometry (FACSCalibur BD, BD Biosciences, San Jose, CA, USA).
Inhibition of HDACs results in anticancer effect through various mechanisms, like cell cycle arrest, reduced proliferation, and induction of apoptosis ([30]). Thus, the cell cycle profile of the human GBM cell line U87 treated with DMC-HA was analyzed by using flow cytometry. […] Although in control cells, only 4.6% of cells were in G2/M phase, 14.5% of cells in G2/M phase were found after treatment with 2.5 μM DMC-HA.

[7] = system: Human glioma cell line SHG44; assay: MTT cell viability assay, SHG44; format: cell-based; conditions: SHG-44, MTT, 72 h, read-out: IC50 antiproliferative activity SHG44
Experimental: as §1

SIRT1 = SIRT1 (Homo sapiens, UniProt Q96EB6); assay: HDACs inhibition assay, SIRT1
Experimental: as §2

[8] = female, SD, mouse, iv, i.v. 1 mg/kg
[9] = female, SD, mouse, po, p.o. 10 mg/kg

SIRT1, sequence (Q96EB6 whole entry): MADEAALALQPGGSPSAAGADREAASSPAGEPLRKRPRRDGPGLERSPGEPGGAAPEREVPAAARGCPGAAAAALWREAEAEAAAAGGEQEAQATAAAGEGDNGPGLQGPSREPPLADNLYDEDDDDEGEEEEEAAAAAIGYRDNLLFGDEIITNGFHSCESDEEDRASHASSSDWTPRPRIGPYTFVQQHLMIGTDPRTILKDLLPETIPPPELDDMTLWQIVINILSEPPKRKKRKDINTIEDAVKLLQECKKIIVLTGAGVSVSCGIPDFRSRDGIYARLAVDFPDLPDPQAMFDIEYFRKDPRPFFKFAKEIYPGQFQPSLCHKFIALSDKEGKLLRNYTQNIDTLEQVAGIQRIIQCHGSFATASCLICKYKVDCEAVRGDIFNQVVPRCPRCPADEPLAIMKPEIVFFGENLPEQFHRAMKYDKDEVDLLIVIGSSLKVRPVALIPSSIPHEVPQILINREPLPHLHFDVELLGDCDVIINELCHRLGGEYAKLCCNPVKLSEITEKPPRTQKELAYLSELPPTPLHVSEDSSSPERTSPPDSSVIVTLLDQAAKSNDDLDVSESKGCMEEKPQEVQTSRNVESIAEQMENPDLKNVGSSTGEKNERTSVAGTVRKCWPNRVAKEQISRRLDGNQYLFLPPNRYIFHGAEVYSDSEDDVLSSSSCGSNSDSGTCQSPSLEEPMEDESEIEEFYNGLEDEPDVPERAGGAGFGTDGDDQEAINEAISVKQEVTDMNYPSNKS
HDAC5, sequence (Q9UQL6 whole entry): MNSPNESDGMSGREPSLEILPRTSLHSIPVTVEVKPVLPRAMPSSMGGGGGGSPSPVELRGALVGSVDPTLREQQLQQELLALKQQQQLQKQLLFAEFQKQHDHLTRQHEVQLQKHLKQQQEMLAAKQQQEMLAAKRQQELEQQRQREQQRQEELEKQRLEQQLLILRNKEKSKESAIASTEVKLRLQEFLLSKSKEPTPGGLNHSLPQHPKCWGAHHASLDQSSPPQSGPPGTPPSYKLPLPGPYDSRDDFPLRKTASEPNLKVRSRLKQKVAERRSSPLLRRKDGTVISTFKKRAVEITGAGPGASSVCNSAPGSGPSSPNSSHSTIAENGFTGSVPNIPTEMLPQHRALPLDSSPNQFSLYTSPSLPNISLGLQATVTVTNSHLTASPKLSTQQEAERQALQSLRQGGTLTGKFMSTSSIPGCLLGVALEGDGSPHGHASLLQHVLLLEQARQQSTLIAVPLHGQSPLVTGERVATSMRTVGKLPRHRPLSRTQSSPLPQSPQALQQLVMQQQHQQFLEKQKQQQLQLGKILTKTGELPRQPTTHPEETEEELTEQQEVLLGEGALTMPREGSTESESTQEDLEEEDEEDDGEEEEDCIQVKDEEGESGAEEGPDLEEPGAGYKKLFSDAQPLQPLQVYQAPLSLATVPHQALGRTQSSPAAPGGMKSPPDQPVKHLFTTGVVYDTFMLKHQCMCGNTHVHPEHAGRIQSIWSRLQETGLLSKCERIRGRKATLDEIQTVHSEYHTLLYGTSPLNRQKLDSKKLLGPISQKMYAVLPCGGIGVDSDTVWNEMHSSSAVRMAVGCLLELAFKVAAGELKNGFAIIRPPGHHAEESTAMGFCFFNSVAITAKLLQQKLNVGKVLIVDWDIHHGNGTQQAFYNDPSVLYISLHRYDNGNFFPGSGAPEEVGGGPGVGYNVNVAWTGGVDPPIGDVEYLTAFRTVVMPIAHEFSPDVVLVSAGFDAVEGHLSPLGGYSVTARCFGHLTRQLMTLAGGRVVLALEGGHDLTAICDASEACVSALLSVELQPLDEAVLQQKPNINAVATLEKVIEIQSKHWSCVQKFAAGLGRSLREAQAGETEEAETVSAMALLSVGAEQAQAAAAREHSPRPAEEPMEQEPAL

SMILES: COc1cc(/C=C/C(=O)CC(=O)/C=C/c2ccc(/C=C/C(=O)NO)cc2)ccc1O [DMC-HA]
- IC50 [1]: 1.95 ± 0.71 µM
- AUC(0-inf) [2, 8]: 0.502 µg·h/mL
- AUC(0-t) [2, 8]: 0.493 µg·h/mL
- clearance [2, 8]: 1.8 L/h/kg
- half-life [2, 8]: 3.2 h
- bioavailability ([2]; female, SD, mouse, oral, p.o. 10 mg/kg vs i.v. 1 mg/kg, read-out: F (oral bioavailability)): 40.2%
- Tmax ([2]; female, SD, mouse, po, p.o. 10 mg/kg, read-out: Tmax): 0.67 h
- Tmax ([2]; female, SD, mouse, po, p.o. 10 mg/kg, read-out: time of peak concentration (converted)): ~0.667 h
- AUC(0-inf) [2, 9]: 2.01 µg·h/mL
- AUC(0-t) [2, 9]: 1.98 µg·h/mL
- Cmax [2, 9]: 1.07 µg/mL
- half-life [2, 9]: 4.1 h
- Cl ([2]; p.o. 10 mg/kg): 8.7 L/h/kg
- peak concentration ([2]; p.o. 10 mg/kg): about 1.0 μg/ml
- IC50 [3]: 4.28 ± 0.52 µM
- IC50 (HDAC5): > 10 µM
- IC50 ([4]; Homo sapiens, HUVEC, MTT, 72 h, normal cells, read-out: IC50 HUVEC): 27.4 ± 3.94 µM
- toxicity to human umbilical vein endothelial cells (HUVECs) ([4]; in words): low toxicity
- effects on the body weight (U87 tumor xenograft): no effects on the body weight
- toxicity during the administration period (U87 tumor xenograft): no observable toxicity
- tumor weight (U87 tumor xenograft; compared with controls): significantly lower tumor weight
- inhibition on the tumor volume (U87 tumor xenograft; oral route / intraperitoneal, vs. control): 52.1%
- acetylation of histone H3, time dependence ([5]; 5 μM, different times): increased in a time-dependent manner
- acetylation of histone H3, dose dependence ([5]; various concentrations, 24 h): dose dependently increased the acetylation of histone H3
- IC50 [6]: 2.78 ± 0.81 µM
- cells in G2/M phase (U87 cells): 14.5%
- IC50 [7]: 4.62 ± 0.72 µM
- IC50 (SIRT1): > 10 µM
